# From patent US11932600B2, “Biaryl derivative” (DAIICHI SANKYO COMPANY, LIMITED, priority 2018, dated 2024)
# How the values were obtained:
# [1] = test system: plasma ALP (80-90% containing TNAP); assay: Inhibitory test of plasma TNAP activity in B6 mouse; format: in vivo; details: 0.3 mg/kg orally in 0.5% methylcellulose, average inhibition from 0 hour to 6 hours after administration, activity before administration = 100%
# Protocol: (Test Example 3) Inhibitory Test of Plasma TNAP Activity in B6 Mouse (Charles River Laboratories Japan, Inc.)
# After blood sampling from the tail vein using a heparin-treated hematocrit capillary tube (EM Meister Hematocrit Capillary Tube, AS ONE Corp.) (as the sample before compound administration), each test compound suspended in a 0.5% methylcellulose solution (powder purchased from Wako Pure Chemical Industries, Ltd. was adjusted to 0.5% with Otsuka distilled water) was administered orally to the mouse (0.3 mg/kg). 1, 2, 4, 6, and 24 hours after the administration, blood was collected from the tail vein using a heparin-treated hematocrit capillary tube to obtain a plasma sample. The plasma sample was added to an assay buffer (1 M Tris, 1 M MgCl2, 20 mM ZnCl2, and water, pH 7.5), and the mixture was left standing for 5 minutes. Then, the absorbance at 405 nm was measured and used as a blank. The substrate pNPP was added to the plasma sample and incubated at room temperature for 180 minutes. Then, the absorbance (ABS: 405 nm) was measured using a microplate reader (model plus 384, Molecular Devices, LLC), and the concentration of produced p-nitrophenol was calculated. The blank was subtracted from all measurement values to calculate TNAP activity at each time point with the TNAP activity of the sample before compound administration defined as 100%.
# It was calculated according to the following expression: 100−((plasma ALP activity at 0 hr+plasma ALP activity at 1 hr)*1/2+(plasma ALP activity at 1 hr+plasma ALP activity at 2 hr)*1/2+(plasma ALP activity at 2 hr+plasma ALP activity at 4 hr)*2/2+(plasma ALP activity at 4 hr+plasma ALP activity at 6 hr)*2/2)/6.
# human TNAP = target: T1, human TNAP (Homo sapiens, UniProt P05186); assay: Inhibitory test of TNAP activity (pNPP substrate, p-nitrophenol production); format: biochemical; details: human TNAP from culture supernatant of transfected COS1 cells, 60 minutes at room temperature, ABS 405 nm
# T1 construct: host or cells: COS1 cells, concentrated and dialyzed culture supernatant
# T1 sequence (P05186 18-502 limits assumed): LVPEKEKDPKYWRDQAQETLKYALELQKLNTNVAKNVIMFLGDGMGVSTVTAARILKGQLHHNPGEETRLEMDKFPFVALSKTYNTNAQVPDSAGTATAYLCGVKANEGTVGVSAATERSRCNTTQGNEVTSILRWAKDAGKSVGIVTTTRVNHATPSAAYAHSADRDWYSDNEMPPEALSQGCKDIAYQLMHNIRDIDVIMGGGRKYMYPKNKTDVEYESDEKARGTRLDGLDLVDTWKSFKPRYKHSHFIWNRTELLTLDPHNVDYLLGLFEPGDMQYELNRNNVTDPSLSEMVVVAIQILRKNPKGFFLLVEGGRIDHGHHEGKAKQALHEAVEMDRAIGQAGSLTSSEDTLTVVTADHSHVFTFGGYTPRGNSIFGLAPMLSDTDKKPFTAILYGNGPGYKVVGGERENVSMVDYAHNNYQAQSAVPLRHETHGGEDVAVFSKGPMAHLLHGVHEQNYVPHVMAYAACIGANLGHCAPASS
# Protocol: <Test Examples> (Test Example 1) Inhibitory Test of TNAP Activity
# COS1 cells (DS Pharma Biomedical Co., Ltd.) were transfected with human TNAP (OriGene Technologies, Inc.) using Lipofectamine LTX & Plus reagent (Invitrogen Corp.). On the next day, the medium was replaced with a fresh medium, and the cells were cultured in an incubator for 3 days. After 3 days, the culture supernatant was collected and concentrated by centrifugation at 5000 G for 30 minutes using Amicon 14, 10^4 cut (Merck Millipore). The concentrated culture supernatant was dialyzed against 5 L of 50 mM Tris/200 mM NaCl/1 mM MgCl2/20 μM ZnCl2 twice and used as an enzyme source (enzyme solution). The substrate pNPP (ProteoChem Inc.) was adjusted to 3.1 mM with Milli-Q water, and a solution of each test compound dissolved in dimethyl sulfoxide (DMSO; Wako Pure Chemical Industries, Ltd.) by 6 serial dilutions at a 5-fold common ratio from 100 μM or DMSO was added thereto at a final concentration of 1% by volume. The enzyme solution adjusted to 2 μg/mL with an assay buffer (200 mM Tris/2 mM MgCl2/0.04 mM ZnCl2/0.01% Tween 20) was added in the same amount of the substrate solution and incubated at room temperature for 60 minutes. Then, the absorbance (ABS: 405 nm) was measured using a microplate reader (model plus 384, Molecular Devices, LLC), and the concentration of produced p-nitrophenol was calculated.
IC50 (human TNAP),SMILES,Plasma ALP Inhibition (6 h ave. inhibition %) [1]
180 pM,"Cc1cncc(S(=O)(=O)Nc2c(F)cc(Cl)cc2-c2ccc(CCC(=O)O)cc2)c1C [Example 31, 3-{5′-Chloro-2′-[(4,5-dimethylpyridine-3-sulfonyl)amino]-3′-fluoro[1,1′-biphenyl]-4-yl}propanoic acid]",82.2%
140 pM,"Cc1cncc(S(=O)(=O)Nc2c(F)cc(Cl)cc2-c2ccc(CC(=O)O)cc2)c1 [Example 11, {5′-Chloro-3′-fluoro-2′-[(5-methylpyridine-3-sulfonyl)amino][1,1′-biphenyl]-4-yl}acetic acid]",79.0%
240 pM,"CC(C)Oc1cncc(S(=O)(=O)Nc2c(F)cc(Cl)cc2-c2ccc(CCC(=O)O)cc2)c1 [Example 30, 3-[5′-Chloro-3′-fluoro-2′-({5-[(propan-2-yl)oxy]pyridine-3-sulfonyl}amino)[1,1′-biphenyl]-4-yl]propanoic acid]",69.9%
150 pM,"CCc1cncc(S(=O)(=O)Nc2c(F)cc(Cl)cc2-c2ccc(OC(C)(C)C(=O)O)cc2)c1 [Example 7, 2-({5′-Chloro-2′-[(5-ethylpyridine-3-sulfonyl)amino]-3′-fluoro[1,1′-biphenyl]-4-yl}oxy)-2-methylpropanoic acid]",69.0%
180 pM,"CCc1cncc(S(=O)(=O)Nc2c(F)cc(Cl)cc2-c2ccc(CCC(=O)O)cc2)c1 [Example 29, 3-{5′-Chloro-2′-[(5-ethylpyridine-3-sulfonyl)amino]-3′-fluoro[1,1′-biphenyl]-4-yl}propanoic acid]",70.9%
